Columns and labels:
Rattus norvegicus [1] = species on record: Rattus norvegicus; assay: Compound was tested for the protection of neurons against NMDA toxicity at concentration of 10 uM; assay type: functional
Glutamate NMDA receptor = assay: Compound was tested for its ability to displace [3H]- MK-801 binding to NMDA receptor in rat forebrain membranes.; assay type: cell membranes
Rattus norvegicus [2] = species on record: Rattus norvegicus; assay: Compound was tested for neuronal cell toxicity in cortical neuron cell cultures extracted from fetal rat brains at concentration of 20 uM; assay type: functional, Brain
[3] = molecular target: Glutamate NMDA receptor (Rattus norvegicus) (UniProt P35439+Q00959+Q00960+Q00961+Q62645+Q8VHN2+Q9R1M7); assay: Compound was tested for its ability to inhibit [3H]- MK-801 binding to NMDA receptor in rat forebrain membranes at concentration of 100 uM; assay type: cell membranes; conditions: Membrane
Rattus norvegicus [4] = species on record: Rattus norvegicus; assay: Compound was tested for neuronal cell toxicity in cortical neuron cell cultures extracted from fetal rat brains at concentration of 10 uM; assay type: functional, Brain

| SMILES | Protection (Rattus norvegicus [1]) [%] | IC50 (Glutamate NMDA receptor) [µM] | Morbidity (Rattus norvegicus [2]) [%] | inhibition [3] [%] | Morbidity (Rattus norvegicus [4]) [%] |
| --- | --- | --- | --- | --- | --- |
| CCCC(C)(C)c1cc(O)c2c(c1)OC(C)(C)C1CC=C(CO)C[C@H]21 (some centres undefined) | 36 | 30 | 0 | 80 | 0 |
| CC(C)(C)c1cc(O)c2c(c1)OC(C)(C)C1CC=C(CO)C[C@H]21 (some centres undefined) | 24 | 30 | 36 | 83 | 15 |
| CCCCCCC(C)(C)c1cc(O)c2c(c1)OC(C)(C)C1CC=C(CO)C[C@H]21 (some centres undefined) | 63 | 10 |  | 90 | 25 |

Reference: ChEMBL document CHEMBL1129111, “Neuroprotective (+) 3S, 4S cannabinoids with modified 5-side chain” (Bioorg Med Chem Lett, 1996)
